Data taken from US20240277713A1 (Kadmon Corporation, LLC, priority 2022, published 2024).
Marks after values point to notes of the source that are not given here.

Test system: New Zealand White rabbits
Test: Embryo-fetal developmental toxicity study in New Zealand White rabbits (Example 4);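 note: dams given a detailed clinical exam daily GD 6 to 29, about 4 h after dosing, then laparohysterectomy on GD 29 with external, visceral and skeletal fetal examination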

CC(C)NC(=O)COc1cccc(-c2nc(Nc3ccc4[nH]ncc4c3)c3ccccc3n2)c1 [belumosudil, 2-{3-[4-(1H-indazol-5-ylamino)-2-quinazolinyl]phenoxy}-N-(propan-2-yl) acetamide]
Hair sparse, Forefoot/right, times observed/animals affected (125 mg base/kg/day, GD 0-29): 0/0 | Hair sparse, Forelimb/left, times observed/animals affected (125 mg base/kg/day, GD 0-29): 4/1 | Hair sparse, Hind limb/left, times observed/animals affected (125 mg base/kg/day, GD 0-29): 0/0 | Hair sparse, Inguinal region/right, times observed/animals affected (125 mg base/kg/day, GD 0-29): 4/1 | Hair sparse, Shoulder/left, times observed/animals affected (125 mg base/kg/day, GD 0-29): 2/1 | Hair sparse, Thoracic region, times observed/animals affected (125 mg base/kg/day, GD 0-29): 2/1 | Hair sparse, Ventral surface, times observed/animals affected (125 mg base/kg/day, GD 0-29): 19/1 | Material in pan/bedding, Red, times observed/animals affected (125 mg base/kg/day, GD 0-29): 2/1 | Nail missing, Forefoot/left, times observed/animals affected (125 mg base/kg/day, GD 0-29): 0/0 | Scabbed area, Ear/left, times observed/animals affected (125 mg base/kg/day, GD 0-29): 0/0 | Scabbed area, Nose/muzzle, times observed/animals affected (125 mg base/kg/day, GD 0-29): 0/0 | Skin discolored, Pale, Entire body, times observed/animals affected (125 mg base/kg/day, GD 0-29): 0/0 | Swelling, Nose/muzzle, times observed/animals affected (125 mg base/kg/day, GD 0-29): 0/0 | Swelling, Vulva, times observed/animals affected (125 mg base/kg/day, GD 0-29): 0/0 | Thin, times observed/animals affected (125 mg base/kg/day, GD 0-29): 0/0 | Fetal Body Weight Genders Combined, % Difference From Control (225 mg base/kg/day): −5.76% | Fetal External Malformation: Short Tail, No. Fetuses (incidence) (225 mg base/kg/day): 5 (3.2) | Fetal External Malformation: Short Tail, No. Litters (incidence) (225 mg base/kg/day): 2 (10.5) | Fetal External Malformations, No. Fetuses (incidence) (225 mg base/kg/day): 5 (3.2) | Fetal External Malformations, No. Litters (incidence) (225 mg base/kg/day): 2 (10.5) | Fetal Skeletal Malformations, No. Fetuses (incidence) (225 mg base/kg/day): 19 (12.2) | Fetal Skeletal Malformations, No. Litters (incidence) (225 mg base/kg/day): 10 (52.6) | Fetal Visceral Variations, No. Fetuses (incidence) (225 mg base/kg/day): 12 (7.7) | Fetal Visceral Variations, No. Litters (incidence) (225 mg base/kg/day): 8 (42.1) | Maternal Body Weight Change GD 0-29, % Difference From Control (225 mg base/kg/day): −24.2% | Maternal Body Weight GD 10, % Difference From Control (225 mg base/kg/day): −6.3% | Maternal Body Weight GD 13, % Difference From Control (225 mg base/kg/day): −8.0% | Maternal Body Weight GD 16, % Difference From Control (225 mg base/kg/day): −9.2% | Maternal Body Weight GD 19, % Difference From Control (225 mg base/kg/day): −8.4% | Maternal Body Weight GD 21, % Difference From Control (225 mg base/kg/day): −6.7% | Maternal Food Consumption GD 0-29 (225 mg base/kg/day): 119.80 | Maternal Food Consumption GD 0-29, % Difference From Control (225 mg base/kg/day): −17.8% | Maternal Food Consumption GD 6-10 (225 mg base/kg/day): 61.2^b | Maternal Food Consumption GD 6-19 (225 mg base/kg/day): 78.70 | Maternal Food Consumption GD 6-19, % Difference From Control (225 mg base/kg/day): −49.7% | Maternal Food Consumption GD 19-29 (225 mg base/kg/day): 155.3^b | Mean Fetal Body Weight Females (225 mg base/kg/day): 38.94 g | Mean Fetal Body Weight Genders Combined (225 mg base/kg/day): 38.60 g | Mean Fetal Body Weight Males (225 mg base/kg/day): 38.92 g | Mean Live Litter Size (225 mg base/kg/day): 7.4 | Mean Number of Early Resorptions (225 mg base/kg/day): 1.4^a | Mean Number of Resorptions (Combined) (225 mg base/kg/day): 1.5^a | Mean Postimplantation Loss (225 mg base/kg/day): 17.72 %/Litter | Number Litters with Viable Fetuses GD29 (225 mg base/kg/day): 19 | Number with All Resorptions GD29 (225 mg base/kg/day): 2 | cervical vertebra(e) centra, hemicentra, fetal incidence (225 mg base/kg/day): 2.6% | cervical vertebra(e) centra, hemicentra, litter incidence (225 mg base/kg/day): 21.1% | neural arches (thoracic) fused, fetal incidence (225 mg base/kg/day): 1.9% | neural arches (thoracic) fused, litter incidence (225 mg base/kg/day): 10.5% | neural arches (thoracic) misaligned, fetal incidence (225 mg base/kg/day): 1.3% | neural arches (thoracic) misaligned, litter incidence (225 mg base/kg/day): 10.5% | neural arches (thoracic) misshapen, fetal incidence (225 mg base/kg/day): 2.6% | neural arches (thoracic) misshapen, litter incidence (225 mg base/kg/day): 21.1% | rib(s) branched, fetal incidence (225 mg base/kg/day): 2.6% | rib(s) branched, litter incidence (225 mg base/kg/day): 21.2% | rib(s) fused, fetal incidence (225 mg base/kg/day): 2.6% | rib(s) fused, litter incidence (225 mg base/kg/day): 15.8% | rib(s) misshapen, fetal incidence (225 mg base/kg/day): 1.9% | rib(s) misshapen, litter incidence (225 mg base/kg/day): 15.8% | short tail (entire), fetal incidence (225 mg base/kg/day): 3.2% | short tail (entire), litter incidence (225 mg base/kg/day): 10.5% | sternebra(e) extra, fetal incidence (225 mg base/kg/day): 4.5% | sternebra(e) extra, litter incidence (225 mg base/kg/day): 21.1% | sternebra(e) fused, fetal incidence (225 mg base/kg/day): 4.5% | sternebra(e) fused, litter incidence (225 mg base/kg/day): 31.6% | tail bent (entire), fetal incidence (225 mg base/kg/day): 1.3% | tail bent (entire), litter incidence (225 mg base/kg/day): 5.3% | ureter malpositioned, litter incidence (225 mg base/kg/day): 26.3% | Number Aborted (225 mg base/kg/day, 23 females): 1 | Number Died (225 mg base/kg/day, 23 females): 1 | Number Litters with Viable Fetuses GD29 (225 mg base/kg/day, 23 females): 19 | Number Not Pregnant (225 mg base/kg/day, 23 females): 0 | Number with All Resorptions GD29 (225 mg base/kg/day, 23 females): 2 | Activity decreased, times observed/animals affected (225 mg base/kg/day, GD 0-29): 4/1 | Feces few/absent, times observed/animals affected (225 mg base/kg/day, GD 0-29): 0/0 | Hair discolored, Brown, Anogenital region, times observed/animals affected (225 mg base/kg/day, GD 0-29): 0/0 | Hair discolored, Brown, Ear/left, times observed/animals affected (225 mg base/kg/day, GD 0-29): 0/0 | Hair discolored, Brown, Ear/right, times observed/animals affected (225 mg base/kg/day, GD 0-29): 0/0 | Hair discolored, Brown, Face, times observed/animals affected (225 mg base/kg/day, GD 0-29): 12/2 | Hair discolored, Brown, Hind limb/left, times observed/animals affected (225 mg base/kg/day, GD 0-29): 1/1 | Hair discolored, Red, Anogenital region, times observed/animals affected (225 mg base/kg/day, GD 0-29): 0/0 | Hair discolored, Red, Face, times observed/animals affected (225 mg base/kg/day, GD 0-29): 0/0 | Hair discolored, Red, Forelimb/left, times observed/animals affected (225 mg base/kg/day, GD 0-29): 0/0 | Hair discolored, Red, Thoracic region, times observed/animals affected (225 mg base/kg/day, GD 0-29): 0/0 | Hair discolored, Yellow, Ear/right, times observed/animals affected (225 mg base/kg/day, GD 0-29): 0/0 | Hair discolored, Yellow, Face, times observed/animals affected (225 mg base/kg/day, GD 0-29): 14/2 | Hair sparse, Anogenital region, times observed/animals affected (225 mg base/kg/day, GD 0-29): 0/0 | Hair sparse, Axillary region/left, times observed/animals affected (225 mg base/kg/day, GD 0-29): 3/1 | Hair sparse, Axillary region/right, times observed/animals affected (225 mg base/kg/day, GD 0-29): 2/1 | Hair sparse, Cervical region, times observed/animals affected (225 mg base/kg/day, GD 0-29): 0/0 | Hair sparse, Ear/left, times observed/animals affected (225 mg base/kg/day, GD 0-29): 0/0 | Hair sparse, Ear/right, times observed/animals affected (225 mg base/kg/day, GD 0-29): 0/0 | Hair sparse, Forefoot/left, times observed/animals affected (225 mg base/kg/day, GD 0-29): 3/1 | Hair sparse, Forefoot/right, times observed/animals affected (225 mg base/kg/day, GD 0-29): 5/2 | Hair sparse, Forelimb/left, times observed/animals affected (225 mg base/kg/day, GD 0-29): 0/0 | Hair sparse, Hind limb/left, times observed/animals affected (225 mg base/kg/day, GD 0-29): 8/1 | Hair sparse, Inguinal region/right, times observed/animals affected (225 mg base/kg/day, GD 0-29): 0/0 | Hair sparse, Shoulder/left, times observed/animals affected (225 mg base/kg/day, GD 0-29): 0/0 | Hair sparse, Thoracic region, times observed/animals affected (225 mg base/kg/day, GD 0-29): 1/1 | Hair sparse, Ventral surface, times observed/animals affected (225 mg base/kg/day, GD 0-29): 0/0 | Material in pan/bedding, Red, times observed/animals affected (225 mg base/kg/day, GD 0-29): 2/2 | Nail missing, Forefoot/left, times observed/animals affected (225 mg base/kg/day, GD 0-29): 0/0 | Scabbed area, Ear/left, times observed/animals affected (225 mg base/kg/day, GD 0-29): 0/0 | Scabbed area, Nose/muzzle, times observed/animals affected (225 mg base/kg/day, GD 0-29): 0/0 | Skin discolored, Pale, Entire body, times observed/animals affected (225 mg base/kg/day, GD 0-29): 11/1 | Swelling, Nose/muzzle, times observed/animals affected (225 mg base/kg/day, GD 0-29): 0/0 | Swelling, Vulva, times observed/animals affected (225 mg base/kg/day, GD 0-29): 2/1 | Thin, times observed/animals affected (225 mg base/kg/day, GD 0-29): 38/5 | NOAEL for maternal and developmental toxicity (pregnant rabbits): 50 mg base/kg/day | doses at which embryo-fetal effects were observed (abortion, post-implantation loss, malformations, decreased fetal body weight) (pregnant rabbits, oral): ≥ 50 mg/kg/day | doses at which maternal toxicity (body weight loss and mortality) was observed (pregnant rabbits, oral, organogenesis): ≥ 125 mg/kg/day
